{"source": "patent US20200038305A1", "about": "“Sunscreen or Sunblock Composition” (Divios LLC, priority 2018, published 2020)", "origin": "cited, not measured here"}
{"smiles": "C=C(C)[C@@H]1CCC(C)=C[C@H]1c1c(O)cc(CCCCC)cc1O", "note": "[CBD, cannabidiol]", "values": [{"measurement": "Aqueous solubility", "result": 10, "unit": "µg/mL"}]}
